# Test results reported in PubChem BioAssay (NCI).
#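 Dose response: 5 concentrations. Exposure: 48 h. Format: 96-well plates. Endpoint: linear interpolation; highest concentration if not reached. The concentration for 50% growth inhibition is given as GI50. TGI is the concentration that stops growth completely.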 Activity calls are given as the source filed them. Rule as the data show it: active = GI50 below about 0.43 µM; inactive = the rest.
# Experiments:
# Assay in all cases: NCI-60 cell line screen, 48 h
# [1] = system: OVCAR-8 ovarian
# [2] = system: MOLT-4 leukemia
# [3] = system: KM20L2 colon
# [4] = system: HCT-15 colon
# [5] = system: HOP-92 NSCLC
# [6] = system: NCI-H23 lung
# [7] = system: UO-31 renal
# [8] = system: SF-539 CNS
# [9] = system: SK-MEL-28 melanoma
# [10] = system: EKVX NSCLC
# [11] = system: UACC-62 melanoma
# [12] = system: IGROV1 ovarian
# [13] = system: TK-10 renal
# [14] = system: RXF-631 renal
# [15] = system: KM12 colon
# [16] = system: CCRF-CEM leukemia
# [17] = system: SNB-78 CNS
# [18] = system: U251 CNS
# [19] = system: NCI-H460 lung
# [20] = system: A549 NSCLC
# [21] = system: K-562 leukemia
# [22] = system: A498 renal
# [23] = system: SF-295 CNS
# [24] = system: M14 melanoma
# [25] = system: UACC-257 melanoma
# [26] = system: M19-MEL melanoma
# [27] = system: LOX IMVI melanoma
# [28] = system: RPMI-8226 leukemia
# [29] = system: HT29 colon
# [30] = system: ACHN renal
# [31] = system: SK-OV-3 ovarian
# [32] = system: HL-60(TB) leukemia
# [33] = system: HCT-116 colon
# [34] = system: OVCAR-5 ovarian
# [35] = system: OVCAR-4 ovarian
# [36] = system: RXF 393 renal
# [37] = system: OVCAR-3 ovarian
# [38] = system: SK-MEL-5 melanoma
# [39] = system: DMS 273 small cell lung
# [40] = system: CAKI-1 renal
# [41] = system: SN12C renal
# [42] = system: NCI-H522 lung
# [43] = system: SNB-19 CNS
# [44] = system: SF-268 CNS
# [45] = system: DMS 114 small cell lung
# [46] = system: SNB-75 CNS
# [47] = system: NCI-H226 lung
# [48] = system: SK-MEL-2 melanoma
# [49] = system: HOP-62 NSCLC
# [50] = system: COLO 205 colon
# [51] = system: DLD-1 colon
# [52] = system: HCC-2998 colon
# [53] = system: XF 498 CNS
# [54] = system: SW-620 colon
# [55] = system: 786-0 renal
# [56] = system: MALME-3M melanoma
# [57] = system: LXFL 529 NSCLC
smiles,measurement,setting,value
O=C1CCCCC2N(C(c3ccccc3)c3ccccc3)CC[C@@]12c1ccccc1 (mixture of isomers),TGI,[1],> 10 µM
same,TGI,[2],> 10 µM
same,TGI,[3],> 10 µM
same,TGI,[4],> 10 µM
same,TGI,[5],> 10 µM
same,TGI,[6],> 10 µM
same,TGI,[7],> 10 µM
same,TGI,[8],> 10 µM
same,TGI,[9],> 10 µM
same,TGI,[10],> 10 µM
same,TGI,[11],> 10 µM
same,TGI,[12],> 10 µM
same,TGI,[13],> 10 µM
same,TGI,[14],> 10 µM
same,TGI,[15],> 10 µM
same,TGI,[16],> 10 µM
same,TGI,[17],> 10 µM
same,TGI,[18],> 10 µM
same,TGI,[19],> 10 µM
same,TGI,[20],> 10 µM
same,TGI,[21],> 10 µM
same,TGI,[22],> 10 µM
same,TGI,[23],> 10 µM
same,TGI,[24],> 10 µM
same,TGI,[25],> 10 µM
same,TGI,[26],> 10 µM
same,TGI,[27],> 10 µM
same,TGI,[28],9.31 µM
same,TGI,[29],> 10 µM
same,TGI,[30],> 10 µM
same,TGI,[31],> 10 µM
same,TGI,[32],9.4 µM
same,TGI,[33],> 10 µM
same,TGI,[34],> 10 µM
same,TGI,[35],> 10 µM
same,TGI,[36],> 10 µM
same,TGI,[37],> 10 µM
same,TGI,[38],> 10 µM
same,TGI,[39],> 10 µM
same,TGI,[40],> 10 µM
same,TGI,[41],> 10 µM
same,TGI,[42],> 10 µM
same,TGI,[43],> 10 µM
same,TGI,[44],> 10 µM
same,TGI,[45],> 10 µM
same,TGI,[46],> 10 µM
same,TGI,[47],> 10 µM
C/C=C1/C(=C/c2[nH]c(/C=c3\[nH]/c(=C/C4=NC(=O)C(CC)=C4C)c(C)c3CCC(=O)O)c(CCC(=O)O)c2C)NC(=O)C1C (stereo not drawn),GI50,[1],> 150 µg/mL
same,TGI,[1],> 150 µg/mL
same,GI50,[2],> 150 µg/mL
same,TGI,[2],> 150 µg/mL
same,GI50,[48],> 150 µg/mL
same,TGI,[48],> 150 µg/mL
same,outcome,[3],inactive
same,GI50,[4],> 150 µg/mL
same,TGI,[4],> 150 µg/mL
same,GI50,[5],103 µg/mL
same,TGI,[5],> 150 µg/mL
same,GI50,[49],> 150 µg/mL
same,TGI,[49],> 150 µg/mL
same,GI50,[6],> 150 µg/mL
same,TGI,[6],> 150 µg/mL
same,GI50,[7],> 150 µg/mL
same,TGI,[7],> 150 µg/mL
same,GI50,[8],> 150 µg/mL
same,TGI,[8],> 150 µg/mL
same,GI50,[9],> 150 µg/mL
same,TGI,[9],> 150 µg/mL
same,GI50,[50],> 150 µg/mL
same,TGI,[50],> 150 µg/mL
same,GI50,[10],> 150 µg/mL
same,TGI,[10],> 150 µg/mL
same,GI50,[51],> 150 µg/mL
same,TGI,[51],> 150 µg/mL
same,GI50,[11],> 150 µg/mL
same,TGI,[11],> 150 µg/mL
same,GI50,[12],> 150 µg/mL
same,TGI,[12],> 150 µg/mL
same,GI50,[13],> 150 µg/mL
same,TGI,[13],> 150 µg/mL
same,outcome,[14],inactive
same,GI50,[52],> 150 µg/mL
same,TGI,[52],> 150 µg/mL
same,GI50,[16],> 150 µg/mL
same,TGI,[16],> 150 µg/mL
same,GI50,[17],> 150 µg/mL
same,TGI,[17],> 150 µg/mL
same,GI50,[18],> 150 µg/mL
same,TGI,[18],> 150 µg/mL
same,outcome,[53],inactive
same,GI50,[19],> 150 µg/mL
same,TGI,[19],> 150 µg/mL
same,GI50,[20],> 150 µg/mL
same,TGI,[20],> 150 µg/mL
same,GI50,[21],> 150 µg/mL
same,TGI,[21],> 150 µg/mL
same,GI50,[22],> 150 µg/mL
same,TGI,[22],> 150 µg/mL
same,GI50,[24],> 150 µg/mL
same,TGI,[24],> 150 µg/mL
same,GI50,[54],> 150 µg/mL
same,TGI,[54],> 150 µg/mL
same,GI50,[26],> 150 µg/mL
same,TGI,[26],> 150 µg/mL
same,GI50,[27],> 150 µg/mL
same,TGI,[27],> 150 µg/mL
same,GI50,[28],> 150 µg/mL
same,TGI,[28],> 150 µg/mL
same,GI50,[30],> 150 µg/mL
same,TGI,[30],> 150 µg/mL
same,GI50,[55],> 150 µg/mL
same,TGI,[55],> 150 µg/mL
same,GI50,[32],> 150 µg/mL
same,TGI,[32],> 150 µg/mL
same,GI50,[33],> 150 µg/mL
same,TGI,[33],> 150 µg/mL
same,GI50,[34],> 150 µg/mL
same,TGI,[34],> 150 µg/mL
same,GI50,[56],> 150 µg/mL
same,TGI,[56],> 150 µg/mL
same,GI50,[35],> 150 µg/mL
same,TGI,[35],> 150 µg/mL
same,GI50,[36],> 150 µg/mL
same,TGI,[36],> 150 µg/mL
same,GI50,[38],> 150 µg/mL
same,TGI,[38],> 150 µg/mL
same,GI50,[39],> 150 µg/mL
same,TGI,[39],> 150 µg/mL
same,GI50,[41],> 150 µg/mL
same,TGI,[41],> 150 µg/mL
same,GI50,[42],> 150 µg/mL
same,TGI,[42],> 150 µg/mL
same,GI50,[43],> 150 µg/mL
same,TGI,[43],> 150 µg/mL
same,outcome,[57],inactive
same,GI50,[44],> 150 µg/mL
same,TGI,[44],> 150 µg/mL
same,GI50,[45],> 150 µg/mL
same,TGI,[45],> 150 µg/mL
same,GI50,[46],> 150 µg/mL
same,TGI,[46],> 150 µg/mL
same,GI50,[47],> 150 µg/mL
same,TGI,[47],> 150 µg/mL
